Reference: patent US6492381B1, “Tricyclic carbamate compounds useful for inhibition of G-protein function and for treatment of proliferative diseases” (Schering Corp., priority 1993, dated 2002)

Columns and labels:
[1] = tested on: T24-BAG4 human bladder carcinoma cells expressing an activated H-ras gene; assay: Cell Mat assay: inhibition of tumor cell growth; assay type: cell-based; details: Homo sapiens, tIC50
Experimental: (§1) Normal human HEPM fibroblasts were planted in 3.5 cm dishes at a density of 5×10^4 cells/dish in 2 ml growth medium, and incubated for 3-5 d to achieve confluence. Medium was aspirated from each dish and the indicator tumor cells, T24-BAG4 human bladder carcinoma cells expressing an activated H-ras gene, were planted on top of the fibroblast monolayer at a density of 2×10^3cells/dish in 2 ml growth medium, and allowed to attach overnight. Compound-induced colony inhibition was assayed by addition of serial dilutions of compound directly to the growth medium 24 h after tumor cell planting, and incubating cells for an additional 14 d to allow colony formation. Assays were terminated by rinsing monolayers twice with phosphate-buffered saline (PBS), fixing the monolayers with a 1% glutaraldehyde solution in PBS, then visualizing tumor cells by staining with X-Gal (Price, J., et al., Lineage analysis in the vertebrate nervous system by retrovirus-mediated gene transfer, Proc. Natl. Acad. Sci.84, 156-160(1987)). […] Both IC50 values were obtained by determining the density of tumor cells and mat cells by visual inspection and enumeration of cells per colony and the number of colonies under the microscope. The therapeutic index of the compound was quantitatively expressed as the ratio of mIC50/tIC50, with values greater than one indicative of tumor target specificity.

[2] = tested on: Normal human HEPM fibroblasts; assay: Cell Mat assay: inhibition of normal cell growth; assay type: cell-based; details: Homo sapiens, Fibroblast, mIC50, normal cell monolayer
Experimental: as §1

[3] = target: T1, farnesyl protein transferase (FPT) (Rattus norvegicus, UniProt Q02293+Q04631); assay: In vitro enzyme assay: inhibition of farnesyl protein transferase; assay type: biochemical; details: Ras-CVLS farnesylation, partially purified rat brain FPT; read-out: FPT IC50
T1 construct: were partially purified from rat brain by ammonium sulfate fractionation followed by Q-Sepharose; from tissue; host or cells: rat brain
Experimental: 1. In vitro enzyme assays: Inhibition of farnesyl protein transferase and geranylgeranyl protein transferase.
Human farnesyl protein transferase was also expressed in E. coli, using cDNA clones encoding both the α and β subunits. […] Two forms of val^12-Ha-Ras protein were prepared as substrates for these enzymes, differing in their carboxy terminal sequence. One form terminated in cysteine-valine-leucine-serine (Ras-CVLS) the other in cystein-valine-leucine-leucine (Ras-CVLL). Ras-CVLS is a substrate for the farnesyl protein transferase while Ras-CVLL is a substrate for geranylgeranyl protein transferase I. The cDNAs encoding these proteins were constructed so that the proteins contain an amino-terminal extension of 6 histidine residues. Both proteins were expressed in Escherichia coli and purified using metal chelate affinity chromatography. The radiolabelled isoprenyl pyrophosphate substrates, [^3H]farnesyl pyrophosphate and [^3H]geranylgeranyl pyrophosphate, were purchased from DuPont/New England Nuclear.
The reaction was allowed to proceed for 30 minutes at room temperature and then stopped with 0.5 ml of 4% sodium dodecyl sulfate (SDS) followed by 0.5 ml of cold 30% trichloracetic acid (TCA). Samples were allowed to sit on ice for 45 minutes and precipitated Ras protein was then collected on GF/C filter paper mats using a Brandel cell harvester. […] Percent inhibition was calculated relative to the DMSO vehicle control.

[4] = tested on: M27 [mouse Lewis lung carcinoma]; assay: In vivo anti-tumor study, M27 s.c. tumor; details: po
Excerpt: (§2) In Vivo Anti-Tumor Studies
(§3) Tumor cells (5×10^5 to 8×10^6 of M27 [mouse Lewis lung carcinoma], A431 [human epidermal carcinoma] or SW620 [human colon adenocarcinoma (lymph node metastasis)]) are innoculated subcutaneously into the flank of 5-6 week old athymic nu/nu female mice. For the C-f-1 [mouse fibroblast transformed with c-fos oncogene] tumor model, 2 mm^3 tumor fragments are transplanted subcutaneously into the flank of 5-6 week old athymic nu/nu female mice. Tumor bearing animals are selected and randomized when the tumors are established. Animals are treated with vehicle (beta cyclodextran for i.p. or corn oil for p.o.) only or compounds in vehicle twice a day (BID) for 5 (1-5) or 7 (1-7) days per week for 2 (×2) or 4 (×4) weeks. The percent inhibition of tumor growth relative to vehicle controls are determined by tumor measurements.

[5] = tested on: SW620 [human colon adenocarcinoma (lymph node metastasis)]; assay: In vivo anti-tumor study, SW620 s.c. tumor; design: species or system mouse; details: po
Excerpt: as §2, §3

## CCOC(=O)N1CCC(C2(F)c3ccc(Cl)cc3CCc3cccnc32)CC1 (stereo not shown) [Compound 530.00]
[1]
  IC50: 12.5 µM
[2]
  IC50: 100 µM
[3]
  IC50: 3.7 µM
[4]; M27, 100 MPK, 14/wk, ×4
  average % tumor inhibition: 37%
[4]; M27 s.c. in athymic nu/nu mice, BID, 1-7, × 4
  % Inhibition (tumor growth relative to vehicle controls): 49%
[5]; SW620, 100 MPK, 10/wk, ×4
  average % tumor inhibition: 57%
[5]; SW-620 s.c. in athymic nu/nu mice, BID, 1-5, × 4
  % Inhibition (tumor growth relative to vehicle controls): 73%
